Measurements from patent EP0299975B1, “COMPOSITION FOR ARRESTING ANGIOGENESIS AND CAPILLARY, CELL OR MEMBRANE LEAKAGE” (Angiogenics Limited, priority 1986, dated 1987).

Key:
tumor angiogenesis = details: hamster cheek pouch, under certain conditions; cited from earlier work
[1] = cited from earlier work
angiogenesis = test: Steroids tested with heparin and heparin fragments against angiogenesis
From the text: Deltacortisone has not previously been disclosed for use in combination with heparin fragments generally, or pentosan polysulfate.

[2] = system: transitional cell carcinoma; test: Subcutaneous transitional cell carcinoma in mice, oral or injected therapy; assay type: in vivo
Method: 100 mice injected with live transitional cell carcinoma subcutaneously, and were grown to a maximum size of 2 cm prior to therapy. The mice were given SP₅₄ and hydrocortisone orally and by injection. The composition was orally administered with SP₅₄ at 0.06 mg/ml and hydrocortisone at 0.5 mg/ml in drinking water. In others the composition was injected with 0.66 mg/ml SP₅₄ and hydrocortisone at 3 mg/ml twice daily, 0.55 ml.

Compound	overcoming angiogenesis (angiogenesis)	also measured
C[C@H]1C[C@@H]2[C@H]([C@@H](O)C[C@@]3(C)[C@H]2CC[C@]3(O)C(=O)CO)[C@@]2(C)C=CC(=O)C=C12 [6 alpha-methyl-prednisolone]		effect on tumor angiogenesis (tumor angiogenesis): partially suppressed
C[C@]12C=CC(=O)C=C1CC[C@@H]1[C@@H]2C(=O)C[C@@]2(C)[C@H]1CC[C@]2(O)C(=O)CO [Deltacortisone]		water solubility [1]: not water soluble to a sufficiently substantial extent
CC(C)CCC[C@@H](C)[C@H]1CC[C@H]2[C@@H]3CC=C4C[C@@H](O)CC[C@]4(C)[C@H]3CC[C@]12C [cholesterol]	ineffective	
C[C@]12CCC(=O)C=C1CC[C@@H]1[C@@H]2CC[C@@]2(C)[C@H]1CC[C@]2(O)C(=O)CO [cortexolone]	ineffective	
C[C@]12C[C@H](O)[C@H]3[C@@H](CCC4=CC(=O)CC[C@@]43C)[C@@H]1CC[C@@H]2C(=O)CO [corticosterone]	ineffective	
C[C@]12CCC(=O)C=C1CC[C@@H]1[C@@H]2[C@@H](O)C[C@@]2(C)[C@H]1CC[C@]2(O)C(=O)CO [hydrocortisone]		effect on tumor ([2]; SP₅₄ eliminated from treatment): regression of tumor; lung metastasis ([2]; mice with transitional cell carcinoma after treatment): found to have lung metastasis
CC(=O)[C@H]1CC[C@H]2[C@@H]3CC=C4C[C@@H](O)CC[C@]4(C)[C@H]3CC[C@]12C [pregnenolone]	ineffective	
CC(=O)[C@H]1CC[C@H]2[C@@H]3CCC4=CC(=O)CC[C@]4(C)[C@H]3CC[C@]12C [progesterone]	ineffective	
C[C@]12CC[C@H]3[C@@H](CCC4=CC(=O)CC[C@@]43C)[C@@H]1CC[C@@H]2O [testosterone]	ineffective	
